The text below walks through data of US20150368617A1, “METHOD FOR FORMING ENDOTHELIAL CELLS” (Korea Advanced Institute of Science and Technology (KAIST), priority 2012, published 2015).

For one experiment, the system named is Flk1+ MPCs. The experiment in a line: Differentiation and expansion of ECs from Flk1+ MPCs in feeder cell-free 2D Matrigel system, FACS of CD31+/CD144+ ECs. The note with it: for differentiation and expansion of ECs compared to control: Y27632 10 μM; for increase of CD31+/CD144+ EC population compared to Control: day 6.5, E14tg2a. The format is cell-based, mouse. The protocol:
E14tg2a ESC cell line was a generous gift from Dr. Jun K. Yamashita (Kyoto University), and R1 ESC cell line was purchased from American Type Cell Culture. Mouse iPSC derived from FVB strain was a generous gift from Drs. Hyun-Jai Cho and Hyo-Soo Kim (Seoul National University Hospital). To obtain Flk1+ MPCs, ESCs and iPSCs were cultured on 0.1% gelatin-coated plates at a density of 1-2×10^3 cells/cm^2 in differentiation medium [┌−minimal essential medium (Invitrogen) supplemented with 10% fetal bovine serum (FBS)] without leukemia inhibitory factor (LIF). At day 4.5, the Flk1+ MPCs were purified by AutoMACS™Pro Separator (Miltenyi Biotec) with biotin-conjugated anti-mouse Flk1 antibody (clone AVAS12a1, eBioscience) and streptavidin MicroBeads (Miltenyi Biotec). The Flk1+MPCs were then subsequently plated onto Matrigel (BD Biosciences)-coated plates at a density of 1˜2×10^4 cells/cm^2, and were cultured in differentiation medium supplemented with VEGF-A165 (50 ng/ml, Peprotech). To purify the ECs from the differentiating Flk1+ cells, the cells were first dissociated and resuspended in HBSS/2% FBS, and were serially incubated with anti-mouse ICAM2 antibody (rat monoclonal, clone 3C4, Biolegend) for 10 min and with anti-rat IgG Microbead (Miltenyi Biotec) for 15 min. […] VEGF-Trap was prepared as previously described. Various signaling inhibitors and activators including SB203580, PD98059, KT5720, Go6976, KT5823, LY294002, rapamycin, Y27632, SB431542, Rho-kinase inhibitor (RKI; H-1152, isoquinolinesulfonamide), and Rho-kinase inhibitor II (RKI-II; pyridyl urea) were purchased from Calbiochem and Sigma-Aldrich.
Cells were harvested with 0.25% trypsin-EDTA (Invitrogen) or dissociation buffer (Invitrogen) and resuspended in HBSS/2% FBS at 1×10^6 cells per 100┌ l. The cells were incubated for 20 min with the following antibodies: biotin-conjugated anti-mouse Flk1 (clone AVAS12a1, eBioscience), allophycocyanin (APC)-conjugated anti-mouse CD140a (clone APA5, eBioscience), phycoerythrin(PE)-conjugated anti-mouse CD31 (clone 390, eBioscience), Alexa Fluor® 647-conjugated anti-mouse CD144 (clone BV13, eBioscience), PE-conjugated anti-mouse D114 (clone HMD4-1, Biolegend), PE-conjugated anti-mouse Tie2 (clone TEK4, eBioscience), PE-conjugated anti-mouse Endoglin (clone MJ7/18, Biolegend), anti-mouse ICAM2 (clone 3C4, Biolegend), APC-conjugated anti-mouse CD140b (clone APBS, eBioscience), PE-conjugated anti-mouse LYVE1 (clone ALY7, eBioscience), anti-mouse VEGFR3 (goat polyclonal, R&D systems), anti-mouse EphB4 (clone VEB4-7E4, Hycult biotech), and PE-conjugated anti-mouse Notch1 (clone HMN1-12, Biolegend). After washing in HBSS/2% FBS twice, the cells were incubated with the following secondary antibodies: PE-conjugated streptavidin (eBioscience), PE-conjugated anti-rat IgG2a (eBioscience), and FITC-conjugated anti-goat IgG (Invitrogen). Dead cells were excluded by 7-aminoactinomycin D (7-AAD, Invitrogen).
Flk1+ MPCs derived from mouse ESCs are capable of differentiating into ECs, hematopoietic cells, mural cells (MCs), and cardiomyocytes. To avoid cell contamination from using feeder cells for differentiation of Flk1+ MPCs, we have established a feeder cell-free 2D Matrigel system (FIG. 1A). Flk1+ MPCs were differentiated from E14tg2a ESC cell line, and when the Flk1+ MPCs were purified at day 4.5 and cultured on Matrigel-coated plates in the differentiation medium, colonies of CD144+ ECs surrounded by ┌ SMA+MCs were formed (FIG. 1B). At day 6.5, population of CD144+/CD31+ ECs grown in differentiation medium was ˜4%, whereas the same EC population was increased up to ˜20% when VEGF-A (50 ng/ml) was supplemented (FIG. 1C). For following experiments, we chose to use 50 ng/ml of VEGF-A (hereafter referred to as VEGF-A) based on its maximal effect on differentiation and expansion of ECs from Flk1+ MPCs.

For another experiment, the system named is ICAM2+ ECs. The experiment in a line: Cell cycle FACS analysis in ICAM2+ ECs. The format is cell-based, mouse. Conditions: 12 hrs after plating. The protocol:
FIGS. 15A-15D. ROCK suppression continuously promotes the expansion of ECs. ICAM2+ ECs were further incubated with PBS (Control), Y27632 (10┌ M), VEGF-A (50 ng/ml; VA) or Y27632 (10┌ M) plus VEGF-A (50 ng/ml) for 2 days, and analyses were performed at day 8.5. (FIG. 15A) Representative FACS analysis showing cell cycle in ICAM2+ ECs at 12 hrs. (FIG. 15B) % of ICAM2+ ECs under each phase of cell cycle at 12 hrs. Each group, n=3. *p<0.01 versus Control; ^#p<0.01 versus VEGF-A. (FIG. 15C) Representative FACS analysis of Annexin V+/PI− apoptotic ECs. (FIG. 15D) % of Annexin V+/PI− ECs. Each group, n=3. *p<0.01 versus Control.
Apoptosis assay was performed as previously described. To determine the cell cycle, BrdU/7-AAD cell cycle analysis was performed according to the manufacturer's instructions (BD Pharmingen™). Briefly, cells were incubated with BrdU (1 mM) for 1 hr, dissociated with dissociation buffer, and stained with anti-CD144 antibody. The cells were then fixed, permeabilized, and fixed once more, followed by 1 hr incubation with DNase I (200 U) at 37┌ C. After incubation with FITC-conjugated anti-BrdU antibody for 20 min at RT, the cells were stained with 7-AAD. The cells were analyzed by FACS Aria II and the data were analyzed using FlowJo software.
For orientation: In flow cytometry, cells or beads pass a laser one at a time.

Take `C[C@@H](N)[C@H]1CC[C@H](C(=O)Nc2ccncc2)CC1` [Y27632]: the “total number of CD31+/CD144+ ECs from Flk1+ MPCs” value in the experiment with Flk1+ MPCs (10 μM Y27632 plus VEGF-A compared to only VEGF-A (Control)) is approximately 4.2 fold. Moreover, in the experiment on Flk1+ MPCs (48 hrs after removal of the non-adherent cells at 6 hrs), the “percentage of EC population compared to control” value turned out to be 1.4 fold. For the same compound, the “differentiation and expansion of ECs compared to control” value is 1.6 fold in the experiment with Flk1+ MPCs (R1 ESC cell line) and 5.9 fold in the experiment with Flk1+ MPCs (iPSC). Also, the figures for the “increase of CD31+/CD144+ EC population compared to Control” value in the experiment on Flk1+ MPCs (Y27632 1 μM with VEGF-A 50 ng/ml) and with Flk1+ MPCs (Y27632 10 μM with VEGF-A 50 ng/ml) were 1.8 fold and 4.1 fold, respectively. Also, in the experiment with Flk1+ MPCs (various concentrations of Y27632 with VEGF-A), the “percentage of EC population and total cell number, dose-dependent” value was “increased”. In addition, the “increase of percentage of cells in S phase compared to control” value in the experiment with ICAM2+ ECs is listed as approximately 1.8 fold.
